Data reported in PMC11189555, “Aryl amino acetamides prevent Plasmodium falciparum ring development via targeting the lipid-transfer protein PfSTART1” (Nature Communications, 2024).
Where two headings read alike, the source gives them in different places.

Test system: PopE-F10 M-833 resistant clone (PfSTART1 N330K)
Experiment: Growth inhibition assay (72 h, LDH activity)
Format: cell-based, Plasmodium falciparum
Details: for EC50: 72 h, PopE-F10 (N330K)
Method: The drug was then removed, and parasites were allowed to recover. Another cycle of drug treatment (3 μM M-833) was then resumed. The resistant lines were cloned out by limiting dilution (diluting the culture into a 96-well plate to achieve an average of ~0.3 parasites per well), prior to growth inhibition assays and genomic DNA (gDNA) extraction (DNeasy Blood and Tissue kit (Qiagen)[18].
Parasite growth assays with inhibitory compounds were performed as per[11] and are fully described in the Supplementary Information. […]
Growth inhibition assays. Synchronised ring-stage parasites (0.3-0.6% parasitemia, 2% haematocrit) were grown for 72 h in a serial-dilution of the compound under […]
and compound 4. Note that M-833 was first purchased from MolPort (MolPort -002-267-916) then made in-house at WEHI: the differences observed in EC50s across experiments are attributed to the different batches of M -833. For some experiments, 0, 0.25 or 2.5 mM of glucosamine (GlcN) was also added. Experiments were set up in technical duplicates or triplicates. Following a freeze -thaw cycle, lactate dehydrogenase (LDH) activity was assessed as an indicator of parasite growt h 5. 30 μL of parasite culture was incubated for 30 min in the dark with 75 μL Malstat mixture (0.1 M Tris pH 9.0, 20 g/L lactic acid, pH 7.5, 0.2% Triton-X100, 0.5 g/L acetylpyridine adenine dinucleotide (APAD, Sigma), 200 μg/mL nitroblue tetrazolium (NBT; Sigma), 1 μg/mL phenozine ethosulfate (PES; Sigma)). Absorbance was then measured at 650 nm, transformed using the formula below, plotted against the logarithm of the concentrations, and a non-linear regression (log(inhibitor) vs. response, variable slope) was calculated using GraphPad Prism to assess the half-inhibitory […]
Growth inhibition % = (1 − average(sample)− average(uRBC)) ∗ 100 […]
The DMSO samples were also used to assess growth of parasite in the presence of 0.25 and 2.5 mM GlcN (normalised by DMSO in 0 mM GlcN). […]

`Cc1cc(Cl)c(S(=O)(=O)N2CCCC2)cc1OCC(=O)NC1CCCCC1` [M-833] was tested, and the “Normalised to DMSO” value (M-833 0.15625 uM, Pop E-F10 replicate 1) was 116.502, the “Normalised to DMSO” value (M-833 0.15625 uM, Pop E-F10 replicate 3) was 108.125 and the “Normalised to DMSO” value (M-833 0.3125 uM, Pop E-F10 replicate 1) was 113.047. For the same molecule, the “Normalised to DMSO” value (M-833 0.3125 uM, Pop E-F10 replicate 3) was 113.296, the “Normalised to DMSO” value (M-833 0.625 uM, Pop E-F10 replicate 1) was 116.996 and the “Normalised to DMSO” value (M-833 0.625 uM, Pop E-F10 replicate 3) was 104.749. The “Normalised to DMSO” value (M-833 1.25 uM, Pop E-F10 replicate 1) was 105.924, the “Normalised to DMSO” value (M-833 1.25 uM, Pop E-F10 replicate 3) was 104.326 and the “Normalised to DMSO” value (M-833 2.5 uM, Pop E-F10 replicate 1) was 101.551. The “Normalised to DMSO” value (M-833 2.5 uM, Pop E-F10 replicate 3) was 105.276, the “Normalised to DMSO” value (M-833 5 uM, Pop E-F10 replicate 1) was 94.8519 and the “Normalised to DMSO” value (M-833 5 uM, Pop E-F10 replicate 3) was 96.4122. The “Normalised to DMSO” value (M-833 10 uM, Pop E-F10 replicate 1) was 72.2144, the “Normalised to DMSO” value (M-833 10 uM, Pop E-F10 replicate 3) was 80.0563 and the EC50 (Plasmodium falciparum, Supplementary Table 1) was > 20 µM. The inhibition at 0.0390625 µM (Plasmodium falciparum, M-833 0.0390625 uM, Pop E-F10 replicate 1, read-out: % Inhibition) was -9.1%, the inhibition at 0.0390625 µM (Plasmodium falciparum, M-833 0.0390625 uM, Pop E-F10 replicate 3, read-out: % Inhibition) was -3.8% and the inhibition at 0.078125 µM (Plasmodium falciparum, M-833 0.078125 uM, Pop E-F10 replicate 1, read-out: % Inhibition) was -8.04%. The inhibition at 0.078125 µM (Plasmodium falciparum, M-833 0.078125 uM, Pop E-F10 replicate 3, read-out: % Inhibition) was -4.85%, the inhibition at 0.15625 µM (Plasmodium falciparum, M-833 0.15625 uM, Pop E-F10 replicate 1, read-out: % Inhibition) was -16.5% and the inhibition at 0.15625 µM (Plasmodium falciparum, M-833 0.15625 uM, Pop E-F10 replicate 3, read-out: % Inhibition) was -8.13%. For the same molecule, the inhibition at 0.3125 µM (Plasmodium falciparum, M-833 0.3125 uM, Pop E-F10 replicate 1, read-out: % Inhibition) was -13%, the inhibition at 0.3125 µM (Plasmodium falciparum, M-833 0.3125 uM, Pop E-F10 replicate 3, read-out: % Inhibition) was -13.3% and the inhibition at 0.625 µM (Plasmodium falciparum, M-833 0.625 uM, Pop E-F10 replicate 1, read-out: % Inhibition) was -17%. The inhibition at 0.625 µM (Plasmodium falciparum, M-833 0.625 uM, Pop E-F10 replicate 3, read-out: % Inhibition) was -4.75%, the inhibition at 1.25 µM (Plasmodium falciparum, M-833 1.25 uM, Pop E-F10 replicate 1, read-out: % Inhibition) was -5.92% and the inhibition at 1.25 µM (Plasmodium falciparum, M-833 1.25 uM, Pop E-F10 replicate 3, read-out: % Inhibition) was -4.33%. The inhibition at 2.5 µM (Plasmodium falciparum, M-833 2.5 uM, Pop E-F10 replicate 1, read-out: % Inhibition) was -1.55%, the inhibition at 2.5 µM (Plasmodium falciparum, M-833 2.5 uM, Pop E-F10 replicate 3, read-out: % Inhibition) was -5.28% and the inhibition at 5 µM (Plasmodium falciparum, M-833 5 uM, Pop E-F10 replicate 1, read-out: % Inhibition) was 5.15%. It also gave an inhibition at 5 µM (Plasmodium falciparum, M-833 5 uM, Pop E-F10 replicate 3, read-out: % Inhibition) of 3.59%, an inhibition at 10 µM (Plasmodium falciparum, M-833 10 uM, Pop E-F10 replicate 1, read-out: % Inhibition) of 27.8% and an inhibition at 10 µM (Plasmodium falciparum, M-833 10 uM, Pop E-F10 replicate 3, read-out: % Inhibition) of 19.9%. It also gave an inhibition at 0.0390625 µM (Plasmodium falciparum, Pop E-F10 replicate 1, M-833 0.0390625 uM) of -3%, an inhibition at 0.078125 µM (Plasmodium falciparum, Pop E-F10 replicate 1, M-833 0.078125 uM) of -0.769% and an inhibition at 0.15625 µM (Plasmodium falciparum, Pop E-F10 replicate 1, M-833 0.15625 uM) of -1.15%. The inhibition at 0.3125 µM (Plasmodium falciparum, Pop E-F10 replicate 1, M-833 0.3125 uM) was -1.42%, the inhibition at 0.625 µM (Plasmodium falciparum, Pop E-F10 replicate 1, M-833 0.625 uM) was -0.0475% and the inhibition at 1.25 µM (Plasmodium falciparum, Pop E-F10 replicate 1, M-833 1.25 uM) was 1.29%. For the same molecule, the inhibition at 2.5 µM (Plasmodium falciparum, Pop E-F10 replicate 1, M-833 2.5 uM) was 3.54%, the inhibition at 5 µM (Plasmodium falciparum, Pop E-F10 replicate 1, M-833 5 uM) was 13.5% and the inhibition at 10 µM (Plasmodium falciparum, Pop E-F10 replicate 1, M-833 10 uM) was 32.5%. For the same molecule, the “Normalised to DMSO” value (Pop E-F10 replicate 1, M-833 0.0390625 uM) was 103, the “Normalised to DMSO” value (Pop E-F10 replicate 1, M-833 0.078125 uM) was 100.769 and the “Normalised to DMSO” value (Pop E-F10 replicate 1, M-833 0.3125 uM) was 101.424. The “Normalised to DMSO” value (Pop E-F10 replicate 1, M-833 0.625 uM) was 100.047, the “Normalised to DMSO” value (Pop E-F10 replicate 1, M-833 1.25 uM) was 98.7091 and the “Normalised to DMSO” value (Pop E-F10 replicate 1, M-833 2.5 uM) was 96.4594. For the same molecule, the “Normalised to DMSO” value (Pop E-F10 replicate 1, M-833 5 uM) was 86.4832, the “Normalised to DMSO” value (Pop E-F10 replicate 1, M-833 10 uM) was 67.4893 and the “(av-uRBC) / (DMSO-uRBC) x100” value (PopE-F10, 3.04832 nM, biological replicate 1) was 111.434. The “(av-uRBC) / (DMSO-uRBC) x100” value (PopE-F10, 3.04832 nM, biological replicate 2) was 114.392, the “(av-uRBC) / (DMSO-uRBC) x100” value (PopE-F10, 3.04832 nM, biological replicate 3) was 116.409 and the “(av-uRBC) / (DMSO-uRBC) x100” value (PopE-F10, 9.14495 nM, biological replicate 1) was 115.6. For the same molecule, the “(av-uRBC) / (DMSO-uRBC) x100” value (PopE-F10, 9.14495 nM, biological replicate 2) was 114.392, the “(av-uRBC) / (DMSO-uRBC) x100” value (PopE-F10, 9.14495 nM, biological replicate 3) was 132.26 and the “(av-uRBC) / (DMSO-uRBC) x100” value (PopE-F10, 27.4348 nM, biological replicate 1) was 114.804. The “(av-uRBC) / (DMSO-uRBC) x100” value (PopE-F10, 27.4348 nM, biological replicate 2) was 115.461, the “(av-uRBC) / (DMSO-uRBC) x100” value (PopE-F10, 27.4348 nM, biological replicate 3) was 121.608 and the “(av-uRBC) / (DMSO-uRBC) x100” value (PopE-F10, 82.3045 nM, biological replicate 1) was 112.716. The “(av-uRBC) / (DMSO-uRBC) x100” value (PopE-F10, 82.3045 nM, biological replicate 2) was 116.595, the “(av-uRBC) / (DMSO-uRBC) x100” value (PopE-F10, 82.3045 nM, biological replicate 3) was 121.195 and the “(av-uRBC) / (DMSO-uRBC) x100” value (PopE-F10, 246.914 nM, biological replicate 1) was 110.71. The “(av-uRBC) / (DMSO-uRBC) x100” value (PopE-F10, 246.914 nM, biological replicate 2) was 117.042, the “(av-uRBC) / (DMSO-uRBC) x100” value (PopE-F10, 246.914 nM, biological replicate 3) was 120.187 and the “(av-uRBC) / (DMSO-uRBC) x100” value (PopE-F10, 740.741 nM, biological replicate 1) was 108.694. For the same molecule, the “(av-uRBC) / (DMSO-uRBC) x100” value (PopE-F10, 740.741 nM, biological replicate 2) was 116.419, the “(av-uRBC) / (DMSO-uRBC) x100” value (PopE-F10, 740.741 nM, biological replicate 3) was 115.329 and the “(av-uRBC) / (DMSO-uRBC) x100” value (PopE-F10, 2222.22 nM, biological replicate 1) was 107.392. The “(av-uRBC) / (DMSO-uRBC) x100” value (PopE-F10, 2222.22 nM, biological replicate 2) was 111.175, the “(av-uRBC) / (DMSO-uRBC) x100” value (PopE-F10, 2222.22 nM, biological replicate 3) was 110.489 and the “(av-uRBC) / (DMSO-uRBC) x100” value (PopE-F10, 6666.67 nM, biological replicate 1) was 97.5292. For the same molecule, the “(av-uRBC) / (DMSO-uRBC) x100” value (PopE-F10, 6666.67 nM, biological replicate 2) was 97.5177, the “(av-uRBC) / (DMSO-uRBC) x100” value (PopE-F10, 6666.67 nM, biological replicate 3) was 73.4437 and the “(av-uRBC) / (DMSO-uRBC) x100” value (PopE-F10, 20000 nM, biological replicate 1) was 52.2279. For the same molecule, the “(av-uRBC) / (DMSO-uRBC) x100” value (PopE-F10, 20000 nM, biological replicate 2) was 44.7285, the “(av-uRBC) / (DMSO-uRBC) x100” value (PopE-F10, 20000 nM, biological replicate 3) was 18.154 and the “Fold change compared to 3D7” value (Supplementary Table 1, EC50 on PopE-F10 vs 3D7) was > 128 fold. The EC50 (Supplementary Table 1) was > 10 µM.
